According to ChEMBL document CHEMBL1201862, “PubChem BioAssay data set” (2004):
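Cells were grown in 96-well plates and exposed to each compound for 48 hours at five concentrations; endpoints were interpolated linearly between bracketing concentrations, or set to the highest concentration if not reached. GI50 = concentration required for 50% inhibition of growth.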 The source made the active and inactive calls. Rule as the data show it: active = GI50 up to about 1.1 µM and inactive = higher.

Legend:
Experiment in all cases: NCI-60 cell line screen, 48 h
A498 = test system: A498
DU-145 = test system: DU-145
SK-MEL-28 = test system: SK-MEL-28
MDA-MB-435 = test system: MDA-MB-435
NCI-H23 = test system: NCI-H23
HOP-62 = test system: HOP-62
OVCAR-3 = test system: OVCAR-3
SF-539 = test system: SF-539
OVCAR-8 = test system: OVCAR-8
U-251 = test system: U-251
RXF 393 = test system: RXF 393
SK-MEL-5 = test system: SK-MEL-5
CAKI-1 = test system: CAKI-1
HT-29 = test system: HT-29
SN12C = test system: SN12C
SW-620 = test system: SW-620
OVCAR-4 = test system: OVCAR-4
HCC 2998 = test system: HCC 2998
T47D = test system: T47D
MCF7 = test system: MCF7
SNB-75 = test system: SNB-75
SK-MEL-2 = test system: SK-MEL-2
NCI-H460 = test system: NCI-H460
NCI/ADR-RES = test system: NCI/ADR-RES
SNB-19 = test system: SNB-19
Hs-578T = test system: Hs-578T
HCT-15 = test system: HCT-15
SF-295 = test system: SF-295
A549 = test system: A549
KM12 = test system: KM12
ACHN = test system: ACHN
LOX IMVI = test system: LOX IMVI
NCI-H522 = test system: NCI-H522
UACC-257 = test system: UACC-257
CCRF-CEM = test system: CCRF-CEM
HL-60 = test system: HL-60
UACC-62 = test system: UACC-62
IGROV-1 = test system: IGROV-1
786-0 = test system: 786-0
UO-31 = test system: UO-31
NCI-H226 = test system: NCI-H226
M14 = test system: M14
COLO 205 = test system: COLO 205
HCT-116 = test system: HCT-116
TK-10 = test system: TK-10
MDA-N = test system: MDA-N
SR = test system: SR
K562 = test system: K562
PC-3 = test system: PC-3
RPMI-8226 = test system: RPMI-8226
EKVX = test system: EKVX
MOLT-4 = test system: MOLT-4
SK-OV-3 = test system: SK-OV-3
Malme-3M = test system: Malme-3M
SF-268 = test system: SF-268
MDA-MB-231 = test system: MDA-MB-231

Q: How did the GI50 (A498) turn out when `OC(CC(O)(C(F)(F)F)C(F)(F)F)C(O)c1ccco1` (stereo unspecified) was run?
A: Its GI50 is 0.22 µM (active).

Q: What about the GI50 (DU-145) of the same compound?
A: The GI50 was > 10 µM (inactive).

Q: And the GI50 (SK-MEL-28)?
A: Its GI50 is > 10 µM (inactive).

Q: What about the GI50 (MDA-MB-435) of the same compound?
A: The GI50 was > 10 µM (inactive).

Q: And the GI50 (NCI-H23)?
A: Its GI50 is > 10 µM (inactive).

Q: And the GI50 (HOP-62)?
A: The GI50 was > 10 µM (inactive).

Q: And the GI50 (OVCAR-3)?
A: The GI50 was > 10 µM (inactive).

Q: And the GI50 (SF-539)?
A: Its GI50 is > 10 µM (inactive).

Q: What about the GI50 (OVCAR-8) of the same compound?
A: The GI50 was > 10 µM (inactive).

Q: What about the GI50 (U-251) of the same compound?
A: The GI50 was > 10 µM (inactive).

Q: What about the GI50 (RXF 393) of the same compound?
A: The GI50 was > 10 µM (inactive).

Q: And the GI50 (SK-MEL-5)?
A: The GI50 was > 10 µM (inactive).

Q: What about the GI50 (CAKI-1) of the same compound?
A: Its GI50 is > 10 µM (inactive).

Q: And the GI50 (HT-29)?
A: Its GI50 is > 10 µM (inactive).

Q: And the GI50 (SN12C)?
A: The GI50 was > 10 µM (inactive).

Q: And the GI50 (SW-620)?
A: The GI50 was > 10 µM (inactive).

Q: And the GI50 (OVCAR-4)?
A: The GI50 was > 10 µM (inactive).

Q: What about the GI50 (HCC 2998) of the same compound?
A: Its GI50 is > 10 µM (inactive).

Q: What about the GI50 (T47D) of the same compound?
A: The GI50 was > 10 µM (inactive).

Q: And the GI50 (MCF7)?
A: Its GI50 is > 10 µM (inactive).

Q: What about the GI50 (SNB-75) of the same compound?
A: The GI50 was > 10 µM (inactive).

Q: What about the GI50 (SK-MEL-2) of the same compound?
A: The GI50 was > 10 µM (inactive).

Q: What about the GI50 (NCI-H460) of the same compound?
A: Its GI50 is > 10 µM (inactive).

Q: What about the GI50 (NCI/ADR-RES) of the same compound?
A: The GI50 was > 10 µM (inactive).

Q: And the GI50 (SNB-19)?
A: Its GI50 is > 10 µM (inactive).

Q: And the GI50 (Hs-578T)?
A: The GI50 was > 10 µM (inactive).

Q: What about the GI50 (HCT-15) of the same compound?
A: Its GI50 is greater than 10 µM.

Q: And the GI50 (SF-295)?
A: The GI50 was > 10 µM (inactive).

Q: And the GI50 (A549)?
A: Its GI50 is > 10 µM (inactive).

Q: What about the GI50 (KM12) of the same compound?
A: Its GI50 is > 10 µM (inactive).

Q: What about the GI50 (ACHN) of the same compound?
A: Its GI50 is > 10 µM (inactive).

Q: And the GI50 (LOX IMVI)?
A: The GI50 was > 10 µM (inactive).

Q: What about the GI50 (NCI-H522) of the same compound?
A: Its GI50 is > 10 µM (inactive).

Q: What about the GI50 (UACC-257) of the same compound?
A: Its GI50 is > 10 µM (inactive).

Q: What about the GI50 (CCRF-CEM) of the same compound?
A: The GI50 was > 10 µM (inactive).

Q: What about the GI50 (HL-60) of the same compound?
A: The GI50 was > 10 µM (inactive).

Q: What about the GI50 (UACC-62) of the same compound?
A: Its GI50 is > 10 µM (inactive).

Q: And the GI50 (IGROV-1)?
A: Its GI50 is > 10 µM (inactive).

Q: And the GI50 (786-0)?
A: The GI50 was > 10 µM (inactive).

Q: And the GI50 (UO-31)?
A: The GI50 was > 10 µM (inactive).

Q: And the GI50 (NCI-H226)?
A: The GI50 was > 10 µM (inactive).

Q: What about the GI50 (M14) of the same compound?
A: Its GI50 is > 10 µM (inactive).

Q: And the GI50 (COLO 205)?
A: Its GI50 is > 10 µM (inactive).

Q: What about the GI50 (HCT-116) of the same compound?
A: The GI50 was > 10 µM (inactive).

Q: What about the GI50 (TK-10) of the same compound?
A: The GI50 was > 10 µM (inactive).

Q: And the GI50 (MDA-N)?
A: Its GI50 is > 10 µM (inactive).

Q: What about the GI50 (SR) of the same compound?
A: The GI50 was > 10 µM (inactive).

Q: What about the GI50 (K562) of the same compound?
A: Its GI50 is > 10 µM (inactive).

Q: What about the GI50 (PC-3) of the same compound?
A: The GI50 was > 10 µM (inactive).

Q: And the GI50 (RPMI-8226)?
A: Its GI50 is > 10 µM (inactive).

Q: What about the GI50 (EKVX) of the same compound?
A: The GI50 was > 10 µM (inactive).

Q: And the GI50 (MOLT-4)?
A: The GI50 was > 10 µM (inactive).

Q: What about the GI50 (SK-OV-3) of the same compound?
A: The GI50 was > 10 µM (inactive).

Q: And the GI50 (Malme-3M)?
A: Its GI50 is > 10 µM (inactive).

Q: And the GI50 (SF-268)?
A: Its GI50 is > 10 µM (inactive).

Q: And the GI50 (MDA-MB-231)?
A: Its GI50 is > 10 µM (inactive).
